In patent US20100247658A1, “ORGANIC COMPOUNDS” (priority 2007, published 2010):

What was measured:
[1] = prior to micronisation
[2] = micronised, heated for 5 hours at 70° C. in a thermal oven; cited from earlier work

Compound	dispersive surface energy [1]	recrystallisation of amorphous parts / stable product [2]
C[N+]1(C)CCC(OC(=O)C(O)(c2ccccc2)C2CCCC2)C1.[Br-] (centres unmarked) [glycopyrrolate, 3-[(cyclopentyl-hydroxyphenylacetyl)oxy]-1,1-dimethyl-pyrrolidinium bromide]	48 mJ/m^2	
salbutamol sulfate		failed to lead to recrystallisation
